As usually defined, the inhibition is the relative decrease from the control value, in per cent.

The values that follow come from patent US20230115120A1, “COMPOSITIONS, METHODS AND USES OF COMBINATION TREATMENTS FOR BLOOD CANCERS” (University of New Brunswick, priority 2020, published 2023).

The subject of one assay is myeloma cell line JJN3. Briefly: Cell growth inhibition (PrestoBlue) in myeloma cell line JJN3. Conditions: FIG. 3a. It counts as cell-based, Human. How it is done:
Cell Culture. Human myeloma cell lines JJN3 were purchased from ATCC, KMM-1 was procured from the Japanese Collection of Research Bioresources Cell Bank (JCBR, Japan). The MM1.R cell line was a kind gift from Dr. Jonathan Keats, Translational Genomics Research Institute (TGen, USA). JJN3 cells were grown in RPMI-1640 medium (Sigma Aldrich, USA) supplemented with 5% heat inactivated FBS (Gibco), 1% I-glutamine (Gibco), 5 mM HEPES, and 1% Penstrep (Sigma Aldrich, USA); KMM-1 cells in RPMI-1640 media supplemented with 10% FBS, 1% L-glutamine (Gibco) and 1% Penstrep; MM1.R cells in advanced RPMI-1640 medium with 4% FBS and 1% Glutamax, in a humidified 5% CO2 incubator at 37° C. Cell lines were tested regularly for mycoplasma and kept free of contamination. Lenalidomide, terameprocol (Sigma Aldrich, USA) and pomalidomide from Selleck chemicals were used.
Cell Growth Inhibition Studies. A 48-h cell growth inhibition assay was conducted using the PrestoBlue cell viability kit (Invitrogen, ON, Canada). Cells were plated at 10,000 cells/well in 96-well tissue culture plates. The effect of single inhibitor and inhibitor combination treatments were done using appropriate vehicle and medium (blank) controls. Cells were incubated at 37° C. in a 5% CO2 incubator for 48 h or 72 h depending on the chosen duration of the study. At the end of the treatment, cell growth inhibition was determined by the PrestoBlue assay. […] Cell growth was assessed fluorometrically at 37° C. using the BioTek Synergy H4 Hybrid Multi-Mode microplate reader (535 nm excitation; 615 nm emission) with Gen 2.06 analyses software. Fluorescence values were corrected for any background fluorescence of the medium and test fractions by subtracting fluorescence readings of the appropriate blanks from the mean fluorescence readings of the untreated control and test wells. The percentage inhibition of cell growth was then defined as 1−(mean test well fluorescence/mean control well fluorescence)×100.

The next assay concerns myeloma cell. In words: Myeloma cell growth inhibition, combination treatments (FIG. 4, FIG. 5). It counts as cell-based, Human. As for the experimental part: Cell Growth Inhibition Studies. A 48-h cell growth inhibition assay was conducted using the PrestoBlue cell viability kit (Invitrogen, ON, Canada). Cells were plated at 10,000 cells/well in 96-well tissue culture plates. The effect of single inhibitor and inhibitor combination treatments were done using appropriate vehicle and medium (blank) controls. Cells were incubated at 37° C. in a 5% CO2 incubator for 48 h or 72 h depending on the chosen duration of the study. At the end of the treatment, cell growth inhibition was determined by the PrestoBlue assay. In brief, 10% PrestoBlue reagent was added to untreated and treated cells in […] in each well and incubated at 37° C. for one and a half hours. Cell growth was assessed fluorometrically at 37° C. using the BioTek Synergy H4 Hybrid Multi-Mode microplate reader (535 nm excitation; 615 nm emission) with Gen 2.06 analyses software. Fluorescence values were corrected for any background fluorescence of the medium and test fractions by subtracting fluorescence readings of the appropriate blanks from the mean fluorescence readings of the untreated control and test wells. The percentage inhibition of cell growth was then defined as 1−(mean test well fluorescence/mean control well fluorescence)×100.

In assay [1] the test system is IKZF1, IKZF3, IRF4, MYC and HDAC1 gene expression in human myeloma cells (KMM-1). Briefly: RNA Seq gene expression profiling in KMM-1 myeloma cells. In kind it is cell-based. Conditions: in comparison with untreated and lenalidomide (10 uM) treated conditions, FIG. 1. As for the experimental part: RNA from myeloma cells (treated and untreated) was isolated and checked for integrity using the Agilent Bioanalyzer 2100 system (Agilent Technologies, Santa Clara, Calif., USA) and quantified using a Qubit fluorometric assay (Thermo Fisher Scientific, USA). RNA Seq was carried out at the Genome Quebec, Montreal, Canada. […] The remaining steps of library preparation were done using the NEBNext Ultra II DNA Library Prep Kit for Illumina (New England BioLabs). Adapters and PCR primers were purchased from New England BioLabs. Libraries were quantified using the Quant-iT™ PicoGreen® dsDNA Assay Kit (Life Technologies) and the Kapa Illumina GA with Revised Primers-SYBR Fast Universal kit (Kapa Biosystems). Average size fragment was determined using a LabChip GX (PerkinElmer) instrument. All bioinformatics analyses were done by the Canadian Centre for Computational Genomics (C3G)-Montréal Node, Canada.

The test system of assay [2] is HDAC1, Sp1, IRF4, IKZF1 and c-MYC protein in human myeloma cell lines JJN3 and MMIR. In words: Western blots of key protein targets in myeloma cell lines. In kind it is cell-based. Conditions: 1, 5, 10 and 25 uM, in comparison with panobinostat, FIG. 2a, 2b. As for the experimental part:
Western/Immunoblotting Methods. Protein lysates were obtained from untreated and CAPE (2) analog-treated myeloma cells and the concentration of proteins was determined by the BCA method. Proteins were resolved in a 4-20% criterion gel followed by electrophoretic transfer to nitrocellulose membrane (Bio-Rad Laboratories Inc., Germany). Membranes were then blocked with 5% skimmed milk in tris-buffered saline-tween (TBS-T) for 1 h and then, after rapid TBS-T washes, incubated overnight at 4° C. with a primary antibody of interest. Goat polyclonal anti-IRF4, rabbit polyclonal anti-Ikaros (Santa Cruz Biotechnology, Santa Cruz, Calif.); mouse monoclonal anti-Caspase-8, rabbit anti-Caspase-3, cleaved Caspase-3, anti-Sp1 (Cell Signaling Technology, Whitby, ON), rabbit monoclonal anti-MYC and mouse monoclonal β-actin antibody (Abcam, Cambridge, Mass.) were the primary antibodies used for this study. Following this, the membrane was incubated with HRP conjugated secondary antibodies. Protein levels in immunoblots were detected with an Amersham™ ECL™ Prime western blotting detection kit (GE Healthcare, ON, Canada), the imaging was performed using the ChemiDoc™ MP imaging system (Bio-Rad Laboratories, USA) and densitometry analyses were done using the Image Lab 5.0 software.
On the technique in general: In western blotting, separated proteins are transferred to a membrane and probed.

The structures appear in SMILES notation.

With `O=C(/C=C/c1cc(O)ccc1O)OCCCc1ccccc1` [As26], the “myeloma cell growth inhibition” value with myeloma cell line JJN3 (combination 2.5 μM As26 with 0.001 nM panobinostat) came out at 54.4%; in the assay with myeloma cell line JJN3 (combination 5 μM As26 with 0.001 nM panobinostat), 69.8%. In addition, the “myeloma cell growth inhibition, combination versus single agents” value with myeloma cell (Sp1 inhibitor Terameprocol (TMP) and As26 combination, FIG. 5) is “augmented myeloma cell growth inhibition”; in the assay on myeloma cell (Trichostatin A and IC 50 As26 combination treatment, FIG. 4) it was “augmented myeloma cell growth inhibition”.

`O=C(/C=C/c1ccc(O)c(O)c1)OCCc1ccccc1` [CAPE, caffeic acid phenethyl ester]: in assay [1] (50 uM), the “gene expression of IKZF1, IKZF3, IRF4, MYC and HDAC1” value is reported as “downregulated”. Also, the “protein levels of HDAC1, Sp1, IRF4, IKZF1 and c-MYC” value in assay [2] is reported as “lowered”.

For `O=C(/C=C/c1ccc(O)c(O)c1)OCCCc1ccccc1` [GL8], the “gene expression of IKZF1, IKZF3, IRF4, MYC and HDAC1” value in assay [1] (25 uM) and in assay [1] (50 uM) was “downregulated” in each case.

With `Cc1[nH]c2ccccc2c1CCNCc1ccc(/C=C/C(=O)NO)cc1` [panobinostat, reference compound], the inhibition at 1 pM in the assay with myeloma cell line JJN3 (Homo sapiens, JJN-3, panobinostat alone, 0.001 nM) worked out at 17 ± 3%.
